pIC50: −log10 of the molar value. The source made the active and inactive calls. The calls are words filed in the database; no cut-off is given here.
How the values were obtained:
[1] = Toxicity in Balb/c mouse implanted with mouse 4T1 cells assessed as lung lesions at 50 mg/kg administered intratumorally every four days for 14 days in the presence of liquid cyanoacrylate by H&E staining based histopathological analysis; type: organism-based; conditions: in vivo, other, 336 h, route it(Intratumoral), time 14 day
MDA-MB-231 [2] = experiment: Induction of apoptosis in human MDA-MB-231 cells assessed as nuclear chromatin condensation at 1 uM incubated for 24 hrs by transmission electron microscopic analysis; type: functional, cell-based
[3] = Acute toxicity in mouse assessed as lethal dose measured over 14 days; conditions: in vivo, 336 h, time 14 day
[4] = Toxicity in Balb/c mouse implanted with mouse 4T1 cells assessed as liver lesions at 50 mg/kg administered intratumorally every four days for 14 days by H&E staining based histopathological analysis; type: organism-based; conditions: in vivo, other, 336 h, route it(Intratumoral), time 14 day
4T1 [5] = experiment: Antitumor activity against mouse 4T1 cells xenografted in Balb/c mouse assessed as tumor growth inhibition at 50 mg/kg administered intratumorally every four days for 14 days; type: functional; design: scale not given: the % may be the effect or the level left; conditions: route it(Intratumoral), time 14 day
[6] = Toxicity in Balb/c mouse implanted with mouse 4T1 cells assessed as heart lesions at 50 mg/kg, ip administered every two days for 14 days by H&E staining based histopathological analysis; type: organism-based; conditions: in vivo, 336 h, time 14 day
[7] = Toxicity in Balb/c mouse implanted with mouse 4T1 cells assessed as effect on body weight at 50 mg/kg administered intratumorally every four days for 14 days in the presence of liquid cyanoacrylate; type: organism-based; conditions: in vivo, other, 336 h, route it(Intratumoral), time 14 day
Mus musculus = experiment: Protection of Balb/c mouse spleen implanted with mouse 4T1 cells at 50 mg/kg administered intratumorally every four days for 14 days in the presence of liquid cyanoacrylate; type: functional, organism-based; conditions: route it(Intratumoral), time 14.0 day
MDA-MB-231 [8] = experiment: Induction of apoptosis in human MDA-MB-231 cells assessed as deep cytoplasm at 1 uM incubated for 24 hrs by transmission electron microscopic analysis; type: functional, cell-based
[9] = Acute toxicity in mouse assessed as death rate ratio at 600 mg/kg, ip measured over 14 days; type: organism-based; conditions: in vivo, 336 h, time 14 day
4T1 [10] = experiment: Antitumor activity against mouse 4T1 cells implanted in Balb/c mouse assessed as TUNEL positive cells at 50 mg/kg, ip administered every two days for 14 days by TUNEL staining analysis (reference value: 6.55%); type: functional; conditions: time 14 day
MDA-MB-231 [11] = experiment: Induction of apoptosis in human MDA-MB-231 cells assessed as increase in caspase 9 expression at 0.5 to 3 times of IC50 concentration by Western blot analysis; type: functional, cell-based
4T1 [12] = experiment: Antitumor activity against mouse 4T1 cells implanted in Balb/c mouse assessed as tumor growth inhibition by measuring T/C ratio at 50 mg/kg administered intratumorally every four days for 14 days in the presence of liquid cyanoacrylate; type: functional; conditions: route it(Intratumoral), time 14 day
4T1 [13] = experiment: Antitumor activity aginst mouse 4T1 cells implanted in Balb/c mouse assessed as nuclei disappearance at 50 mg/kg administered intratumorally every four days for 14 days; type: functional, organism-based; conditions: route it(Intratumoral), time 14.0 day
[14] = Drug metabolism in Balb/c mouse liver implanted with mouse 4T1 cells assessed as dechlorination of parent compound causing metabolite formation by LC-MS analysis; type: ADME, tissue-based
[15] = Drug metabolism in Balb/c mouse tumor implanted with mouse 4T1 cells assessed as dechlorination of parent compound causing metabolite formation by LC-MS analysis; type: ADME, tissue-based, Neoplasm
MDA-MB-231 [16] = experiment: Induction of apoptosis in human MDA-MB-231 cells assessed as increase in cytochrome C expression at 0.5 to 3 times of IC50 concentration by Western blot analysis; type: functional, cell-based
4T1 [17] = experiment: Antitumor activity aginst mouse 4T1 cells implanted in Balb/c mouse assessed as nuclei shrinkage at 50 mg/kg, ip administered every two days for 14 days; type: functional, organism-based; conditions: time 14.0 day
MDA-MB-231 [18] = experiment: Induction of cell cycle arrest in human MDA-MB-231 cells assessed as decrease in G1 phase cells at 10 uM incubated for 24 hrs by PI staining based flow cytometric analysis (reference value: 74.44%); type: functional; design: scale not given: the % may be the effect or the level left
MDA-MB-231 [19] = experiment: Induction of apoptosis in human MDA-MB-231 cells assessed as decrease in Bcl-2/Bax ratio at 0.5 to 3 times of IC50 concentration by Western blot analysis; type: functional, cell-based
MDA-MB-231 [20] = experiment: Induction of cell cycle arrest in human MDA-MB-231 cells assessed as increase in G2 phase cells at 10 uM incubated for 24 hrs by PI staining based flow cytometric analysis (reference value: 8.95%); type: functional
[21] = Toxicity in Balb/c mouse implanted with mouse 4T1 cells assessed as effect on body weight at 50 mg/kg, ip administered every two days for 14 days; type: organism-based; conditions: in vivo, 336 h, time 14 day
A549 = experiment: Antiproliferative activity against human A549 cells assessed as inhibition of cell growth by MTT assay; type: functional, cell-based
[22] = Toxicity in Balb/c mouse implanted with mouse 4T1 cells assessed as spleen lesions at 50 mg/kg administered intratumorally every four days for 14 days by H&E staining based histopathological analysis; type: organism-based; conditions: in vivo, other, 336 h, route it(Intratumoral), time 14 day
MDA-MB-231 [23] = experiment: Induction of cell cycle arrest in human MDA-MB-231 cells assessed as increase in S phase cells at 10 uM incubated for 24 hrs by PI staining based flow cytometric analysis (reference value: 16.61%); type: functional
4T1 [24] = experiment: Antitumor activity against mouse 4T1 cells implanted in Balb/c mouse assessed as tumor growth inhibition at 50 mg/kg administered intratumorally every four days for 14 days in the presence of liquid cyanoacrylate relative to control; type: functional; conditions: 4T1, 336 h, route it(Intratumoral), time 14 day, read-out: TGI
[25] = Toxicity in Balb/c mouse xenografted with mouse 4T1 cells assessed as heart lesions at 200 mg/kg administered topically over the tumor surface every two days for 14 days in the presence of cyanoacrylate by H&E staining based histopathological analysis; type: organism-based; conditions: in vivo, topical_or_ocular, 336 h, route top, time 14 day
MDA-MB-231 [26] = experiment: Induction of mitochondrial membrane potential loss in human MDA-MB-231 cells assessed as increase in green fluorescence intensity at 0.1 to 1 uM measured after 24 hrs byJC-1 staining based fluorescence microscopic analysis; type: functional, cell-based; conditions: dose 0.1-1 µM
[27] = Toxicity in Balb/c mouse implanted with mouse 4T1 cells assessed as heart lesions at 50 mg/kg administered intratumorally every four days for 14 days in the presence of liquid cyanoacrylate by H&E staining based histopathological analysis; type: organism-based; conditions: in vivo, other, 336 h, route it(Intratumoral), time 14 day
[28] = Toxicity in Balb/c mouse implanted with mouse 4T1 cells assessed as liver lesions at 50 mg/kg administered intratumorally every four days for 14 days in the presence of liquid cyanoacrylate by H&E staining based histopathological analysis; type: organism-based; conditions: in vivo, other, 336 h, route it(Intratumoral), time 14 day
MDA-MB-231 [29] = experiment: Induction of apoptosis in human MDA-MB-231 cells assessed as apoptotic cells at 10 uM incubated for 24 hrs by Annexin V-FITC/propidium iodide staining based flow cytometric method (reference value: 5.68%); type: functional
[30] = Toxicity in Balb/c mouse implanted with mouse 4T1 cells assessed as spleen lesions at 50 mg/kg administered intratumorally every four days for 14 days in the presence of liquid cyanoacrylate by H&E staining based histopathological analysis; type: organism-based; conditions: in vivo, other, 336 h, route it(Intratumoral), time 14 day
[31] = Toxicity in Balb/c mouse xenografted with mouse 4T1 cells assessed as spleen lesions at 200 mg/kg administered topically over the tumor surface every two days for 14 days in the presence of cyanoacrylate by H&E staining based histopathological analysis; type: organism-based; conditions: in vivo, topical_or_ocular, 336 h, route top, time 14 day
4T1 [32] = experiment: Antitumor activity against mouse 4T1 cells xenografted in Balb/c mouse assessed as shrinkage of nucleus at 200 mg/kg administered topically over the tumor surface every two days for 14 days in the presence of cyanoacrylate; type: functional, organism-based; conditions: route top, time 14.0 day

With `Cc1[nH]c2ccccc2c1C1=C(Cl)C(=O)C(Cl)=C(N2CCOCC2)C1=O` the Activity [1] was “Non-Toxic”, the Activity (MDA-MB-231 [2]) was “Active” and the LD50 [3] was 374 mg/kg. The Activity [4] was “Non-Toxic”, the Activity (4T1 [5]) was 24.6% and the Activity [6] was “Non-Toxic”. For the same compound, the Activity [7] was “Non-Toxic”, the Activity (Mus musculus) was “Active” and the Activity (MDA-MB-231 [8]) was “Active”. For the same compound, the Ratio [9] was 1, the Activity (4T1 [10]) was 19.64% and the Activity (MDA-MB-231 [11]) was “Active”. For the same compound, the T/C (4T1 [12]) was 42%, the Activity (4T1 [13]) was “Active” and the Drug metabolism [14] was “Metabolite_Detected”. The Drug metabolism [15] was “Metabolite_Detected”, the Activity (MDA-MB-231 [16]) was “Active” and the Activity (4T1 [17]) was “Active”. The Activity (MDA-MB-231 [18]) was 16.84%, the Activity (MDA-MB-231 [19]) was “Active” and the Activity (MDA-MB-231 [20]) was 55.05%. The Activity [21] was “Non-Toxic”, the pIC50 (A549) was 6.68 and the Activity [22] was “Non-Toxic”. The Activity (MDA-MB-231 [23]) was 28.47%, the inhibition in vivo at 50 mg/kg (4T1 [24]) was 49.8% and the Activity [25] was “Non-Toxic”. The Activity (MDA-MB-231 [26]) was “Active”, the Activity [27] was “Non-Toxic” and the Activity [28] was “Non-Toxic”. The Activity (MDA-MB-231 [29]) was 31.69%, the Activity [30] was “Non-Toxic” and the Activity [31] was “Non-Toxic”. The Activity (4T1 [32]) was “Active”.

Reference: ChEMBL document CHEMBL5137015, “Design, synthesis, and evaluation of a novel series of mono-indolylbenzoquinones derivatives for the potential treatment of breast cancer” (Eur J Med Chem, 2022)
